Experimental data taken from the NIST ThermoML archive (doi:10.1016/j.tca.2013.08.016).

How the values were obtained:
[1] = refractive index (Na D-line) (dimensionless); φn = volume fraction of the nth substance listed; details: 101 kPa, Liquid, Standard Abbe refractometry
[2] = refractive index (Na D-line) (dimensionless); details: 101.33 kPa, Liquid, Standard Abbe refractometry

CO [methanol] + CCCC[n+]1ccc(C)cc1.F[B-](F)(F)F
[1], φ2 = 0
Details | refractive index
293.15 K | 1.32843
303.15 K | 1.32433
313.15 K | 1.32015
323.15 K | 1.3167

CCO [ethanol] + CCCC[n+]1ccccc1.F[B-](F)(F)F
[1], φ2 = 0
Details | refractive index
303.15 K | 1.35702
313.15 K | 1.3527
323.15 K | 1.34837

CO [methanol] + CCCC[n+]1ccccc1.F[B-](F)(F)F
[1], φ2 = 0
Details | refractive index
293.15 K | 1.32843
303.15 K | 1.32433
313.15 K | 1.32015
323.15 K | 1.3167

CCCC[n+]1ccccc1.F[B-](F)(F)F [1-butylpyridinium tetrafluoroborate] + CCO
[1]
Details | refractive index
303.15 K, φ1 = 0.0806 | 1.36595
303.15 K, φ1 = 0.1412 | 1.37218
303.15 K, φ1 = 0.2622 | 1.3839
303.15 K, φ1 = 0.3554 | 1.39236
303.15 K, φ1 = 0.4323 | 1.39905
303.15 K, φ1 = 0.561 | 1.40993
303.15 K, φ1 = 0.6685 | 1.41861
303.15 K, φ1 = 0.7512 | 1.42527
303.15 K, φ1 = 0.8213 | 1.43076
303.15 K, φ1 = 0.8742 | 1.43497
303.15 K, φ1 = 0.9217 | 1.43861
303.15 K, φ1 = 0.9612 | 1.44158
303.15 K, φ1 = 1 | 1.44454
313.15 K, φ1 = 0.0802 | 1.36207
313.15 K, φ1 = 0.1405 | 1.36844
313.15 K, φ1 = 0.2611 | 1.38045
313.15 K, φ1 = 0.3541 | 1.389
313.15 K, φ1 = 0.4308 | 1.39575
313.15 K, φ1 = 0.5595 | 1.40676
313.15 K, φ1 = 0.6672 | 1.4156
313.15 K, φ1 = 0.7501 | 1.42236
313.15 K, φ1 = 0.8205 | 1.42796
313.15 K, φ1 = 0.8736 | 1.43225
313.15 K, φ1 = 0.9213 | 1.43596
313.15 K, φ1 = 0.961 | 1.43898
313.15 K, φ1 = 1 | 1.4419
323.15 K, φ1 = 0.0798 | 1.35794
323.15 K, φ1 = 0.1398 | 1.3646
323.15 K, φ1 = 0.26 | 1.37704
323.15 K, φ1 = 0.3528 | 1.38573
323.15 K, φ1 = 0.4294 | 1.39254
323.15 K, φ1 = 0.5581 | 1.40354
323.15 K, φ1 = 0.6659 | 1.41255
323.15 K, φ1 = 0.749 | 1.41938
323.15 K, φ1 = 0.8196 | 1.42508
323.15 K, φ1 = 0.8729 | 1.42947
323.15 K, φ1 = 0.9209 | 1.43328
323.15 K, φ1 = 0.9607 | 1.43633
323.15 K, φ1 = 1 | 1.43924

CCCC[n+]1cccc(C)c1.F[B-](F)(F)F [1-butyl-3-methylpyridinium tetrafluoroborate] + CO
[1]
Details | refractive index
293.15 K, φ1 = 0.0958 | 1.34245
293.15 K, φ1 = 0.2025 | 1.35728
293.15 K, φ1 = 0.2756 | 1.36702
293.15 K, φ1 = 0.3528 | 1.37693
293.15 K, φ1 = 0.4508 | 1.38917
293.15 K, φ1 = 0.5501 | 1.40126
293.15 K, φ1 = 0.6751 | 1.416
293.15 K, φ1 = 0.7686 | 1.42667
293.15 K, φ1 = 0.828 | 1.43333
293.15 K, φ1 = 0.8763 | 1.43873
293.15 K, φ1 = 0.9159 | 1.44307
293.15 K, φ1 = 0.9334 | 1.445
293.15 K, φ1 = 0.9732 | 1.44949
293.15 K, φ1 = 1 | 1.45248
303.15 K, φ1 = 0.0958 | 1.33885
303.15 K, φ1 = 0.2025 | 1.35407
303.15 K, φ1 = 0.2756 | 1.364
303.15 K, φ1 = 0.3528 | 1.37406
303.15 K, φ1 = 0.4508 | 1.38641
303.15 K, φ1 = 0.5501 | 1.39855
303.15 K, φ1 = 0.6751 | 1.41337
303.15 K, φ1 = 0.7686 | 1.42402
303.15 K, φ1 = 0.828 | 1.43069
303.15 K, φ1 = 0.8763 | 1.43606
303.15 K, φ1 = 0.9159 | 1.44042
303.15 K, φ1 = 0.9334 | 1.44233
303.15 K, φ1 = 0.9732 | 1.4468
303.15 K, φ1 = 1 | 1.44976
313.15 K, φ1 = 0.0948 | 1.33503
313.15 K, φ1 = 0.2006 | 1.3505
313.15 K, φ1 = 0.2756 | 1.36083
313.15 K, φ1 = 0.3501 | 1.37069
313.15 K, φ1 = 0.4478 | 1.38319
313.15 K, φ1 = 0.5471 | 1.39542
313.15 K, φ1 = 0.6725 | 1.41032
313.15 K, φ1 = 0.7665 | 1.4211
313.15 K, φ1 = 0.8262 | 1.42784
313.15 K, φ1 = 0.875 | 1.4333
313.15 K, φ1 = 0.915 | 1.43765
313.15 K, φ1 = 0.9327 | 1.43961
313.15 K, φ1 = 0.9729 | 1.44409
313.15 K, φ1 = 1 | 1.44706
323.15 K, φ1 = 0.0942 | 1.332
323.15 K, φ1 = 0.1995 | 1.34774
323.15 K, φ1 = 0.2718 | 1.35784
323.15 K, φ1 = 0.3485 | 1.3681
323.15 K, φ1 = 0.4461 | 1.38056
323.15 K, φ1 = 0.5454 | 1.39283
323.15 K, φ1 = 0.6709 | 1.40773
323.15 K, φ1 = 0.7652 | 1.41853
323.15 K, φ1 = 0.8253 | 1.42521
323.15 K, φ1 = 0.8742 | 1.43058
323.15 K, φ1 = 0.9144 | 1.43492
323.15 K, φ1 = 0.9322 | 1.43687
323.15 K, φ1 = 0.9727 | 1.44133
323.15 K, φ1 = 1 | 1.44425

CCO [ethanol]
[2]
Details | refractive index
293.15 K | 1.36144
303.15 K | 1.35702
313.15 K | 1.3527
323.15 K | 1.34837

CCCC[n+]1cccc(C)c1.F[B-](F)(F)F [1-butyl-3-methylpyridinium tetrafluoroborate]
[2]
Details | refractive index
293.15 K | 1.45248
303.15 K | 1.44976
313.15 K | 1.44706
323.15 K | 1.44425

CCCC[n+]1ccccc1.F[B-](F)(F)F [1-butylpyridinium tetrafluoroborate]
[2]
Details | refractive index
293.15 K | 1.44719
303.15 K | 1.44454
313.15 K | 1.4419
323.15 K | 1.43924

CCCC[n+]1ccc(C)cc1.F[B-](F)(F)F [1-butyl-4-methylpyridinium tetrafluoroborate]
[2]
Details | refractive index
293.15 K | 1.45386
303.15 K | 1.45114
313.15 K | 1.44841
323.15 K | 1.44571
